MIC and MBC data for 14 compounds are collected here from ChEMBL document CHEMBL1157018, “Synthesis and antibacterial activity of 5-ylidenethiazolidin-4-ones and 5-benzylidene-4,6-pyrimidinediones” (2010).

Each structure is given as a SMILES string. ≈ marks a conversion by molar mass, not a printed value.

What all share (assay type): functional
Assay [1] deals with Staphylococcus aureus. Description: Antibacterial activity against Staphylococcus aureus ATCC 29213 after 18 to 24 hrs.
Another assay relates to Enterococcus faecalis. Description: Antibacterial activity against Enterococcus faecalis ATCC 29212 after 18 to 24 hrs.
The test system of assay [2] is Staphylococcus aureus. The assay can be described thus: Antibacterial activity against methicillin-resistant Staphylococcus aureus ATCC 43300 after 18 to 24 hrs.
The next assay relates to Streptococcus pneumoniae. Description: Antibacterial activity against Streptococcus pneumoniae ATCC 49619 after 18 to 24 hrs.
The next assay concerns Streptococcus pyogenes. Description: Antibacterial activity against Streptococcus pyogenes ATCC 19615 after 18 to 24 hrs.
For the next assay, the system named is Escherichia coli. The assay can be described thus: Antibacterial activity against Escherichia coli ATCC 25922 after 18 to 24 hrs.
In another assay the test system is Pseudomonas aeruginosa. Description: Antibacterial activity against Pseudomonas aeruginosa ATCC 27853 after 18 to 24 hrs.

For orientation: MIC means the smallest concentration in the dilution series that meets the test's criterion for growth inhibition. A low value points to inhibition by little substance. In general, MBC refers to the lowest tested concentration that kills the bacteria rather than only halting them.

As to `O=C1NC(=S)S/C1=C\c1ccc(F)c(F)c1F`, the MIC was 0.5 µg/mL (≈ 1.82 µM) with Staphylococcus aureus [1]; over 128 µg/mL with Enterococcus faecalis; 32 µg/mL (≈ 116 µM) against Staphylococcus aureus [2]; over 128 µg/mL against Escherichia coli; over 128 µg/mL against Pseudomonas aeruginosa. The MBC in the assay on Streptococcus pneumoniae was 64 µg/mL (≈ 232 µM); with Streptococcus pyogenes, over 128 µg/mL.
Regarding `O=C(O)CN1C(=O)/C(=C/c2ccc(F)c(F)c2F)SC1=S`, the MIC in the assay on Staphylococcus aureus [1], with Enterococcus faecalis, in the assay with Escherichia coli and against Pseudomonas aeruginosa was over 128 µg/mL in each case.
As to `Cl.NCCc1ccc(OCCC2Oc3ccccc3N(Cc3ccc(Cl)cc3)C2=O)cc1` (stereo not drawn), the MIC with Staphylococcus aureus [1] is 8 µg/mL; with Enterococcus faecalis it was 16 µg/mL.
Regarding `O=C1NC(=S)S/C1=C\CC1Oc2ccccc2N(Cc2ccc(Cl)cc2)C1=O` (stereo not drawn), the MIC against Staphylococcus aureus [1] is 32 µg/mL (≈ 74.3 µM); in the assay on Enterococcus faecalis it was over 128 µg/mL; with Escherichia coli, over 128 µg/mL; against Pseudomonas aeruginosa, over 128 µg/mL.
`Cl.N#Cc1ccc(CN2C(=O)C(CCOc3ccc(CCN)cc3)Oc3ccccc32)cc1` (stereo not drawn): the MIC in the assay with Staphylococcus aureus [1] and against Enterococcus faecalis was 64 µg/mL in each case.
Turning to `COc1cc(C=C2C(=O)NC(=O)NC2=O)cc(OC)c1OC`, the MIC in the assay on Staphylococcus aureus [1], with Enterococcus faecalis, against Escherichia coli and against Pseudomonas aeruginosa was over 128 µg/mL throughout.
In the case of `COc1cc(/C=C2\SC(=S)NC2=O)cc(OC)c1OC`, the MIC against Staphylococcus aureus [1] was 8 µg/mL (≈ 25.7 µM); in the assay on Enterococcus faecalis, over 128 µg/mL; in the assay with Staphylococcus aureus [2], 128 µg/mL (≈ 411 µM); with Escherichia coli, over 128 µg/mL; in the assay on Pseudomonas aeruginosa, over 128 µg/mL. The MBC against Streptococcus pneumoniae and in the assay with Streptococcus pyogenes was over 128 µg/mL each time.
On to `O=C1NC(=S)S/C1=C\c1ccc(O)c(O)c1O`, for which the MIC in the assay with Staphylococcus aureus [1] and with Enterococcus faecalis was over 128 µg/mL each time.
Take `N#Cc1ccc(CN2C(=O)C(C/C=C3\SC(=S)NC3=O)Oc3ccccc32)cc1` (stereo not drawn): the MIC against Staphylococcus aureus [1] is 32 µg/mL (≈ 75.9 µM); in the assay on Enterococcus faecalis, 32 µg/mL (≈ 75.9 µM); against Escherichia coli it was over 128 µg/mL; in the assay on Pseudomonas aeruginosa, over 128 µg/mL.
For the compound `COc1cc(/C=C2\SC(=O)NC2=O)cc(OC)c1OC`, the MIC in the assay on Staphylococcus aureus [1], against Enterococcus faecalis, in the assay with Escherichia coli and against Pseudomonas aeruginosa was over 128 µg/mL each time.
As to `COc1cc(/C=C2\SC(=S)N(CC(=O)O)C2=O)cc(OC)c1OC`, the MIC against Staphylococcus aureus [1], against Enterococcus faecalis, against Escherichia coli and in the assay on Pseudomonas aeruginosa was over 128 µg/mL each time.
As for `O=C1NC(=O)/C(=C/c2ccc(F)c(F)c2F)S1`, the MIC with Staphylococcus aureus [1] is 32 µg/mL (≈ 123 µM); in the assay with Enterococcus faecalis it was over 128 µg/mL; against Staphylococcus aureus [2], 64 µg/mL (≈ 247 µM); against Escherichia coli, over 128 µg/mL; against Pseudomonas aeruginosa, over 128 µg/mL.
On to `COc1cc(C=C2C(=O)NC(=S)NC2=O)cc(OC)c1OC`, for which the MIC in the assay with Staphylococcus aureus [1], in the assay on Enterococcus faecalis, against Escherichia coli and against Pseudomonas aeruginosa was over 128 µg/mL throughout.
Consider `O=C1NC(=O)C(=Cc2ccc(F)c(F)c2F)C(=O)N1`, for which the MIC against Staphylococcus aureus [1] was 32 µg/mL (≈ 118 µM); against Enterococcus faecalis it was over 128 µg/mL; against Staphylococcus aureus [2] it was 128 µg/mL (≈ 474 µM); against Escherichia coli, over 128 µg/mL; in the assay on Pseudomonas aeruginosa, over 128 µg/mL.
